Reference: PMC4061985 (Journal of immunology (Baltimore, Md. : 1950), 2009)
Residues, ends and D or L forms follow the SMILES beside them.

Biological target: HLA-DR0901 protein (Homo sapiens, UniProt P01903+P01911, A100R/A103E/D57H/D86V/F55Y/F60I/F76Y/I96F/K127E/L162R/M171V/P40D/Q125H/Q99R/R33Q/R42F/S133A/S66N/T210M/V115G/W38K/Y107V/Y59G/Y89S)
Assay: Peptide binding competition assay, DR0901

| Structure (SMILES) | Kd [nM] |
| --- | --- |
| CC[C@H](C)[C@H](NC(=O)[C@H](CCCCN)NC(=O)[C@H](CC(=O)O)NC(=O)[C@H](CC(C)C)NC(=O)[C@H](CO)NC(=O)[C@H](Cc1ccc(O)cc1)NC(=O)[C@H](CC(N)=O)NC(=O)[C@H](Cc1ccccc1)NC(=O)[C@H](CC(N)=O)NC(=O)[C@@H](N)CC(C)C)C(=O)N[C@@H](CC(C)C)C(=O)N[C@H](C(=O)N[C@@H](CC(=O)O)C(=O)O)C(C)C [LNFNYSLDKILVD] (H-LNFNYSLDKILVD-OH) | 330 ± 68 |
| CC[C@H](C)[C@H](NC(=O)[C@H](CCCCN)NC(=O)[C@H](CC(=O)O)NC(=O)[C@H](CC(C)C)NC(=O)[C@H](CO)NC(=O)[C@H](Cc1ccc(O)cc1)NC(=O)[C@H](CC(N)=O)NC(=O)[C@H](Cc1ccccc1)NC(=O)[C@H](CC(N)=O)NC(=O)[C@@H](N)CC(C)C)C(=O)N[C@@H](CCSC)C(=O)N[C@H](C(=O)N[C@@H](CC(=O)O)C(=O)O)C(C)C [LNFNYSLDKIMVD] (H-LNFNYSLDKIMVD-OH) | 280 ± 61 |
| CC[C@H](C)[C@H](NC(=O)[C@H](CCCCN)NC(=O)[C@H](CC(=O)O)NC(=O)[C@H](CC(C)C)NC(=O)[C@H](CO)NC(=O)[C@H](Cc1ccc(O)cc1)NC(=O)[C@H](CC(N)=O)NC(=O)[C@H](Cc1ccccc1)NC(=O)[C@H](CC(N)=O)NC(=O)[C@@H](N)CC(C)C)C(=O)N[C@@H](CC(N)=O)C(=O)N[C@H](C(=O)N[C@@H](CC(=O)O)C(=O)O)C(C)C [LNFNYSLDKINVD] (H-LNFNYSLDKINVD-OH) | 2600 |
| CC[C@H](C)[C@H](NC(=O)[C@H](CCCCN)NC(=O)[C@H](CC(=O)O)NC(=O)[C@H](CC(C)C)NC(=O)[C@H](CO)NC(=O)[C@H](Cc1ccc(O)cc1)NC(=O)[C@H](CC(N)=O)NC(=O)[C@H](Cc1ccccc1)NC(=O)[C@H](CC(N)=O)NC(=O)[C@@H](N)CC(C)C)C(=O)N1CCC[C@H]1C(=O)N[C@H](C(=O)N[C@@H](CC(=O)O)C(=O)O)C(C)C [LNFNYSLDKIPVD] (H-LNFNYSLDKIPVD-OH) | 1700 |
| CC[C@H](C)[C@H](NC(=O)[C@H](CCCCN)NC(=O)[C@H](CC(=O)O)NC(=O)[C@H](CC(C)C)NC(=O)[C@H](CO)NC(=O)[C@H](Cc1ccc(O)cc1)NC(=O)[C@H](CC(N)=O)NC(=O)[C@H](Cc1ccccc1)NC(=O)[C@H](CC(N)=O)NC(=O)[C@@H](N)CC(C)C)C(=O)N[C@@H](CCCNC(=N)N)C(=O)N[C@H](C(=O)N[C@@H](CC(=O)O)C(=O)O)C(C)C [LNFNYSLDKIRVD] (H-LNFNYSLDKIRVD-OH) | 6700 |
| CC[C@H](C)[C@H](NC(=O)[C@H](CCCCN)NC(=O)[C@H](CC(=O)O)NC(=O)[C@H](CC(C)C)NC(=O)[C@H](CO)NC(=O)[C@H](Cc1ccc(O)cc1)NC(=O)[C@H](CC(N)=O)NC(=O)[C@H](Cc1ccccc1)NC(=O)[C@H](CC(N)=O)NC(=O)[C@@H](N)CC(C)C)C(=O)N[C@@H](CO)C(=O)N[C@H](C(=O)N[C@@H](CC(=O)O)C(=O)O)C(C)C [LNFNYSLDKISVD] (H-LNFNYSLDKISVD-OH) | 770 ± 100 |
| CC[C@H](C)[C@H](NC(=O)[C@H](CCCCN)NC(=O)[C@H](CC(=O)O)NC(=O)[C@H](CC(C)C)NC(=O)[C@H](CO)NC(=O)[C@H](Cc1ccc(O)cc1)NC(=O)[C@H](CC(N)=O)NC(=O)[C@H](Cc1ccccc1)NC(=O)[C@H](CC(N)=O)NC(=O)[C@@H](N)CC(C)C)C(=O)N[C@@H](Cc1c[nH]c2ccccc12)C(=O)N[C@H](C(=O)N[C@@H](CC(=O)O)C(=O)O)C(C)C [LNFNYSLDKIWVD] (H-LNFNYSLDKIWVD-OH) | 530 ± 50 |
| CC[C@H](C)[C@H](NC(=O)[C@H](CCCCN)NC(=O)[C@H](CC(=O)O)NC(=O)[C@H](CC(C)C)NC(=O)[C@H](CO)NC(=O)[C@H](Cc1ccc(O)cc1)NC(=O)[C@H](CC(N)=O)NC(=O)[C@H](Cc1ccccc1)NC(=O)[C@H](CC(N)=O)NC(=O)[C@@H](N)CC(C)C)C(=O)N[C@@H](Cc1ccc(O)cc1)C(=O)N[C@H](C(=O)N[C@@H](CC(=O)O)C(=O)O)C(C)C [LNFNYSLDKIYVD] (H-LNFNYSLDKIYVD-OH) | 240 ± 33 |
| CC[C@H](C)[C@H](NC(=O)[C@H](CCSC)NC(=O)[C@H](CC(=O)O)NC(=O)[C@H](CC(C)C)NC(=O)[C@H](CO)NC(=O)[C@H](Cc1ccc(O)cc1)NC(=O)[C@H](CC(N)=O)NC(=O)[C@H](Cc1ccccc1)NC(=O)[C@H](CC(N)=O)NC(=O)[C@@H](N)CC(C)C)C(=O)N[C@H](C(=O)N[C@H](C(=O)N[C@@H](CC(=O)O)C(=O)O)C(C)C)[C@@H](C)CC [LNFNYSLDMIIVD] (H-LNFNYSLDMIIVD-OH) | 24 ± 5 |
| CC[C@H](C)[C@H](NC(=O)[C@H](CC(N)=O)NC(=O)[C@H](CC(=O)O)NC(=O)[C@H](CC(C)C)NC(=O)[C@H](CO)NC(=O)[C@H](Cc1ccc(O)cc1)NC(=O)[C@H](CC(N)=O)NC(=O)[C@H](Cc1ccccc1)NC(=O)[C@H](CC(N)=O)NC(=O)[C@@H](N)CC(C)C)C(=O)N[C@H](C(=O)N[C@H](C(=O)N[C@@H](CC(=O)O)C(=O)O)C(C)C)[C@@H](C)CC [LNFNYSLDNIIVD] (H-LNFNYSLDNIIVD-OH) | 27 ± 1 |
| CC[C@H](C)[C@H](NC(=O)[C@@H](NC(=O)[C@@H]1CCCN1C(=O)[C@H](CC(=O)O)NC(=O)[C@H](CC(C)C)NC(=O)[C@H](CO)NC(=O)[C@H](Cc1ccc(O)cc1)NC(=O)[C@H](CC(N)=O)NC(=O)[C@H](Cc1ccccc1)NC(=O)[C@H](CC(N)=O)NC(=O)[C@@H](N)CC(C)C)[C@@H](C)CC)C(=O)N[C@H](C(=O)N[C@@H](CC(=O)O)C(=O)O)C(C)C [LNFNYSLDPIIVD] (H-LNFNYSLDPIIVD-OH) | 36 ± 12 |
| CC[C@H](C)[C@H](NC(=O)[C@H](CCCNC(=N)N)NC(=O)[C@H](CC(=O)O)NC(=O)[C@H](CC(C)C)NC(=O)[C@H](CO)NC(=O)[C@H](Cc1ccc(O)cc1)NC(=O)[C@H](CC(N)=O)NC(=O)[C@H](Cc1ccccc1)NC(=O)[C@H](CC(N)=O)NC(=O)[C@@H](N)CC(C)C)C(=O)N[C@H](C(=O)N[C@H](C(=O)N[C@@H](CC(=O)O)C(=O)O)C(C)C)[C@@H](C)CC [LNFNYSLDRIIVD] (H-LNFNYSLDRIIVD-OH) | 53 ± 10 |
| CC[C@H](C)[C@H](NC(=O)[C@H](CO)NC(=O)[C@H](CC(=O)O)NC(=O)[C@H](CC(C)C)NC(=O)[C@H](CO)NC(=O)[C@H](Cc1ccc(O)cc1)NC(=O)[C@H](CC(N)=O)NC(=O)[C@H](Cc1ccccc1)NC(=O)[C@H](CC(N)=O)NC(=O)[C@@H](N)CC(C)C)C(=O)N[C@H](C(=O)N[C@H](C(=O)N[C@@H](CC(=O)O)C(=O)O)C(C)C)[C@@H](C)CC [LNFNYSLDSIIVD] (H-LNFNYSLDSIIVD-OH) | 110 ± 45 |
| CC[C@H](C)[C@H](NC(=O)[C@H](Cc1ccc(O)cc1)NC(=O)[C@H](CC(=O)O)NC(=O)[C@H](CC(C)C)NC(=O)[C@H](CO)NC(=O)[C@H](Cc1ccc(O)cc1)NC(=O)[C@H](CC(N)=O)NC(=O)[C@H](Cc1ccccc1)NC(=O)[C@H](CC(N)=O)NC(=O)[C@@H](N)CC(C)C)C(=O)N[C@H](C(=O)N[C@H](C(=O)N[C@@H](CC(=O)O)C(=O)O)C(C)C)[C@@H](C)CC [LNFNYSLDYIIVD] (H-LNFNYSLDYIIVD-OH) | 41 ± 10 |
| CC[C@H](C)[C@H](NC(=O)[C@H](CCCCN)NC(=O)[C@H](Cc1c[nH]cn1)NC(=O)[C@H](CC(C)C)NC(=O)[C@H](CO)NC(=O)[C@H](Cc1ccc(O)cc1)NC(=O)[C@H](CC(N)=O)NC(=O)[C@H](Cc1ccccc1)NC(=O)[C@H](CC(N)=O)NC(=O)[C@@H](N)CC(C)C)C(=O)N[C@H](C(=O)N[C@H](C(=O)N[C@@H](CC(=O)O)C(=O)O)C(C)C)[C@@H](C)CC [LNFNYSLHKIIVD] (H-LNFNYSLHKIIVD-OH) | 87 ± 8 |
